Results reported in patent US7488583B2, “Fragment complementation assays for G-protein-coupled receptors and their signaling pathways” (Odyssey Thera, Inc., priority 2003, dated 2009).
“Also recorded” adds a separate entry of the source. Non-standard residues stand in square brackets, D forms with d. Residues, ends and D or L forms follow the SMILES beside them. *: point of attachment. Nle = CCCC[C@H](N)C(=O)O; Cbz = O=C(OCc1ccccc1)*

What was measured:
[1] = tested on: association of beta-arrestin2 and ubiquitin; assay: beta-arrestin2/ubiquitin PCA (ubiquitination of beta-arrestin2); format: cell-based; settings: for beta-arrestin2/ubiquitin assay fluorescence, positive pixel mean (PPM) as percent of control (FIG. 12): versus negative control (vehicle alone)
From the text: To illustrate another example of a novel assay constructed using the methods provided herein, we developed a protein-fragment complementation assay to measure the association of beta-arrestin2 and ubiquitin (see FIGS. 11-12) using the methods described here. Ubiquitin is a highly conserved 76-amino acid polypeptide. Since its discovery in the mid-1970s, ubiquitin has been associated with cellular house-keeping functions such as eliminating damaged proteins. It has recently become clear that ubiquitin is involved in a variety of other vital processes at different subcellular locations ranging from the plasma membrane to the nucleus, including cell-cycle progression, signal transduction, transcriptional regulation, receptor down-regulation, and endocytosis. Ubiquitin is covalently attached to proteins through an isopeptide bond between its carboxy-terminal glycine and the epsilon-amino group of lysines in the target protein. This attachment is catalyzed by enzymes that activate and ultimately conjugate the ubiquitin moiety to a lysine residue in the substrate. This can be followed by further additions of ubiquitin to specific lysine residues within the linked ubiquitin itself, resulting in a poly-ubiquitin chain. This covalent modification can be reversed by unique proteases specific for the iso-peptide linkage. Although ubiquitin is the best-characterized polypeptide modifier, other polypeptides (often referred to as Ubiquitin-like, or Ubl) are also conjugated to targets in analogous reactions. These ‘alternative’ modifiers, which differ from ubiquitin in sequence similarity but which are structurally similar to ubiquitin, include SUMO; Nedd8; Hub 1, ISG15 or UCRP; and Apg 12 (reviewed in Aguilar).
Previously, assays for ubiquitination have relied upon immunoblotting of proteins with anti-ubiquitin antibodies, or on labelling of proteins with a fluorophore-tagged ubiquitin polypeptide. […] FIGS. 11-12 show the results of the transient transfection of the PCA constructs. […] Since the process of ubiquitination targets proteins for degradation, we used ALLN (see Table 3 for concentration) to inhibit the proteasome activity of the cell in order to ensure that the arrestin/ubiquitin complex would accumulate in the cells and be detectable. […] The effects of Trichostatin A are particularly interesting in light of recent findings linking HDAC inhibition with the attenuation of cardiac hypertrophy induced by isoproterenol or by overexpression of proteins linked to cardiac growth and proliferation (Cardiac hypertrophy and histone deacetylase-dependent transcriptional repression mediated by the atypical homeodomain protein Hop; H. Kook, et al., J Clin Invest. 2003 September; 112(6):863-71). […]

[2] = target: T1, interaction of the beta-adrenergic receptor with beta-arrestin2 (Homo sapiens, UniProt P07550); format: cell-based; settings: HEK293T stable line, 480 minutes, concentrations of Table 3
T1 construct: (Gly-Gly-Gly-Gly-Ser)2 linker between receptor and YFP[2]; YFP[2]; (EYFP amino acids 159-239); expressed in transfected cells
Procedure: For the betaARR2/beta2AR, stable cell lines were generated.
Drug concentrations initially were chosen based on literature references and were further refined to ensure lack of toxicity in HEK293 cells, based on lactate dehydrogenase (LDH) toxicity analyses. All liquid handling steps were performed using the Biomek FX platform (Beckman Instruments, Fullerton, Calif.). Cells expressing the betaARR2/beta2AR PCA were incubated in cell culture medium containing drugs for 30 min., 90 min., and 8 hours. […] Cells were subsequently rinsed with HBSS (Invitrogen) and maintained in the same buffer during image acquisition. […] All treatment conditions were run in duplicate yielding a total of 8 images for each wavelength and treatment condition.
For these high-content assays, image analysis is needed to convert the acquired images into fluorescence intensity and, if desired, to resolve the subcellular distribution of the fluorescence signal. […] Raw images in 16-bit grayscale TIFF format were analyzed using ImageJ API/library as described in the literature. […] Next a threshold was established to separate the foreground from background. An iterative algorithm based on Particle Analyzer from ImageJ was applied to the thresholded Hoechst channel image (HI) to obtain the total cell count. The nuclear region of a cell (nuclear mask) was also derived from the thresholded HI. A WGA mask was generated similarly from the thresholded Texas Red image. […] To calculate the global background (gBG), a histogram was obtained from the un-thresholded YI and the pixel intensity of the lowest intensity peak was identified as gBG. […] The mean pixel intensity for all positive particles within each defined sub-region was calculated, resulting in 4 parameters: total positive pixel mean (MT, the mean intensity of the total particle fluorescence); Hoechst mean (M1, the mean intensity of the Hoechst defined region); Texas Red mean (M2, the mean intensity of the WGA-defined region); and Subtracted mean (M3, the mean intensity of the pixels excluded from the WGA- and Hoechst-defined regions). All means were corrected for the corresponding gBG.
For each set of experiments (assay+drug treatment+treatment time), positive pixel data from eight images were pooled. For each parameter, an outlier filter was applied to filter out those particles falling outside the range (mean±3SD) of the group. Next the sample mean or control mean for each parameter was obtained from each filtered group.

CCCC[C@@H](C=O)NC(=O)[C@H](CC(C)C)NC(=O)[C@H](CC(C)C)NC(C)=O [ALLN] (Ac-Leu-Leu-[Nle]-aldehyde)
beta-arrestin2/ubiquitin PCA signal with proteasome inhibitor (FIG. 11) ([1]; transient transfection, absence of isoproterenol, ALLN at Table 3 concentration): clearly visible in the presence of ALLN; also recorded: Signal was apparent only in the presence

Cc1ccc(S(=O)(=O)/C=C/C#N)cc1 [BAY 11-7082]
fluorescence intensity of the YFP channel as percent of control, later time points (FIG. 10) [2]: had effects only at later time points

pertussis toxin
fluorescence intensity of the YFP channel as percent of control, later time points (FIG. 10) [2]: had effects only at later time points

CC(/C=C/C(=O)NO)=C\[C@@H](C)C(=O)c1ccc(N(C)C)cc1 [Trichostatin A]
beta-arrestin2/ubiquitin assay fluorescence, positive pixel mean (PPM) as percent of control (FIG. 12) [1]: significantly increased the assay signal; also recorded: increased the signal fourfold

CC(C)NCC(O)c1ccc(O)c(O)c1 (stereo not drawn) [isoproterenol]
beta-arrestin2/ubiquitin PCA fluorescence intensity after agonist (FIG. 11) ([1]; in the presence of ALLN, 60-120 minutes): caused a significant increase in fluorescence intensity; also recorded: caused a significant increase in signal

CC(C)C[C@@H](C=O)NC(=O)[C@H](CC(C)C)NC(=O)[C@H](CC(C)C)NC(=O)OCc1ccccc1 [MG132] (Cbz-Leu-Leu-Leu-aldehyde)
beta-arrestin2/ubiquitin assay fluorescence, positive pixel mean (PPM) as percent of control (FIG. 12) [1]: significantly increased the assay signal; also recorded: increased the signal fourfold
